Common to all, as to assay type: binding
Experiment [1] addresses T1, RHOGDI1 (Homo sapiens, UniProt P52565).
T1 construct: GST; made in house; host or cells: E. coli
Briefly: Fluorescence polarization competition with FITC-labelled GerGer-Rab1 peptide. Particulars: 5 μM FITC-labelled GerGer-Rab1 peptide, 50 μM RHOGDI1. The method, then:
Figure 4 Compound 7 a is a RHOGDI1 inhibitor. a) Structure of the affinity probes 8 and 9. b) Affinity‐based enrichment of RHOGDI1 from NIH/3T3 lysates by probe 8 as compared to probe 9 and detection using a RHOGDI1 antibody. c) Competition pulldown was performed as in b in presence of S10a as a competitor. d) Structure of the fluorescent derivative 10. e) Binding of derivative 10 to RHOGDI1‐3. […] Fluorescence polarization measurements using 10 and RHOGDI1‐3. […] Representative data (n=3). P: pellet; S: supernatant. g) Competition of derivative 10 with RAC1. Fluorescence polarization measurements after adding 2 μM prenylated RAC1 or non‐prenylated RAC1 to 2 μM compound 10 and 5 μM RHOGDI1. Representative data (n=3). h) Fluorescence polarization measurements upon titration of 7 a into a mixture of 5 μM FITC‐labelled GerGer‐Rab1 peptide and 50 μM RHOGDI1.

Another experiment addresses T2, RHOGDI1-RAC1 interaction (Homo sapiens, UniProt P52565).
T2 construct: GST; made in house; host or cells: RHOGDI1: E. coli; GerGer-RAC1: insect cells (TNAO38)
T2 sequence (P52565 1-204): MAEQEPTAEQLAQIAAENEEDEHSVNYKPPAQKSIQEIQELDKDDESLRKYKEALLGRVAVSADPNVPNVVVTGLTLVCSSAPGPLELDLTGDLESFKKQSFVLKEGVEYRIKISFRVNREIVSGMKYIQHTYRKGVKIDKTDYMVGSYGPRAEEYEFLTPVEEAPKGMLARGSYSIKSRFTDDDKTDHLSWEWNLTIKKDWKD
Briefly: Fluorescence polarization: titration of TAMRA-GDP-bound RAC1 with RHOGDI1 in presence of compound. Particulars: Cheng-Prusoff equation using data from Figure S6f. The method, then:
cilia were stained with an antibody against acetylated tubulin. SMO was marked with an anti-SMO antibody and DAPI was used to stain the nuclei. For quantification of cilia, at least 100 cilia per condition and biological replicate were analyzed for the intensity of anti-acetylated tubulin antibody staining. The results of one representative biological replicate are shown and each data point represents the intensity value of one single cilium. Statistical significance was evaluated using an unpaired t-test with a confidence interval of 95 % (p ≤ n.s.). […]
Label-free quantification (LFQ) intensities were logarithmized (log2) and proteins, which were not three times quantified in at least one of the groups, were filtered off. […]
Fluorescence polarization
The binding of probe 10 to RHOGDI1-3 was confirmed by fluorescence polarization experiments. […] The change in fluorescence polarization was monitored at an excitation / emission wavelengths of 535 nm and 593 nm, respectively. […]
To determine the effect of 7a on the binding of RHOGDI1 to non-prenylated RAC1-GDP, fluorescence polarization measurements were performed by titrating 1 µM TAMRA-GDP-bound RAC1 with increasing concentrations of RHOGDI1 in the presence and absence of 50 µM 7a in buffer containing 30 mM Tris-HCl, pH 7.5, 150 mM NaCl, 5 mM MgCl2, 1% DMSO. […]

The target in experiment [2] is T3, RHOGDI1 (Homo sapiens, UniProt P52565).
T3 construct: GST; made in house; host or cells: E. coli (XL1-Blue / BL21)
Briefly: Limited proteolysis mass spectrometry (LiP-MS). Particulars: 100 μM compound.

Structures are written as SMILES.

Take `COC(=O)C1(C(CC(=O)c2ccccc2)c2ccccc2)N=C(c2ccc(Br)cc2)C2C(=O)N(C)C(=O)C21` (stereo not drawn) [7a]: the “Competition with binding of RHOGDI1 to GerGer-RAB1 peptide (in words)” value on RHOGDI1 [1] was “competed”.

Regarding `COC(=O)C1(C(CC(=O)c2cccnc2)c2ccccc2)N=C(c2ccc(Br)cc2)C2C(=O)N(C)C(=O)C21` (stereo not drawn) [7l], the inhibitory constant (Ki) at RHOGDI1-RAC1 interaction was approximately 2200 nM. Further, the “Protection of RHOGDI1 peptides from proteinase K-mediated proteolysis (in words)” value at RHOGDI1 [2] is given as “several peptides in the 179–199 amino acid sequence were protected”.

The values are drawn from paper PMC9313812, “The Pseudo‐Natural Product Rhonin Targets RHOGDI” (Angewandte Chemie (International Ed. in English), 2022).
